Values quoted from earlier work as cited in article PMC10468453, “First-in-human study of a novel cell death tracer [^99mTc]Tc-Duramycin: safety, biodistribution and radiation dosimetry in healthy volunteers” (EJNMMI Radiopharmacy and Chemistry, 2023).

Conditions: humans; ref Challapalli et al. [2013]; Doss et al. [2013]; Hoglund et al. [2011]; Kemerink et al. [2003]; Quinn et al. [2016]
Source text: We determined the mean effective dose of [^99mTc]Tc-Duramycin as 7.6 µSv/MBq, corresponding to a total effective dose of 3.60 mSv for a patient dose of 473 MBq.

Compound	Effective dose [mSv]
O=C[C@H]([18F])[C@@H](O)[C@H](O)[C@H](O)CO [[^18F]FDG, 2-[^18F]fluoro-2-deoxy-D-glucose]	9.0
O=C1C(=O)N(Cc2cn(CC[18F])nn2)c2ccc(S(=O)(=O)N3CCCC3COc3ccc(F)cc3F)cc21 (stereo not drawn) [[^18F]ICMT-11]	12.5
[^99mTc]HYNIC-annexin V: radiolabeled annexin V, a phosphatidylserine-binding protein	5.5
